Data taken from ChEMBL document CHEMBL4507267 (2021).

Key:
[1] = target: Mitogen-activated protein kinase 4 (Homo sapiens) (UniProt P31152); conditions: Compound concentration 1000.0 nM
[2] = target: Cyclin-dependent kinase 16 (Homo sapiens) (UniProt Q00536); conditions: Compound concentration 1000.0 nM
[3] = target: Serine/threonine-protein kinase D3 (Homo sapiens) (UniProt O94806); conditions: Compound concentration 1000.0 nM
[4] = target: Protein kinase C theta type (Homo sapiens) (UniProt Q04759); conditions: Compound concentration 1000.0 nM
[5] = target: Mitogen-activated protein kinase kinase kinase 13 (Homo sapiens) (UniProt O43283); conditions: Compound concentration 1000.0 nM
[6] = target: Citron Rho-interacting kinase (Homo sapiens) (UniProt O14578); conditions: Compound concentration 1000.0 nM
[7] = target: Phosphatidylinositol 4-phosphate 5-kinase type-1 gamma (Homo sapiens) (UniProt O60331); conditions: Compound concentration 1000.0 nM
[8] = target: Phosphatidylinositol 4,5-bisphosphate 3-kinase catalytic subunit gamma isoform (Homo sapiens) (UniProt P48736); conditions: Compound concentration 1000.0 nM
[9] = target: Receptor-type tyrosine-protein kinase FLT3 (Homo sapiens) (UniProt P36888); conditions: Compound concentration 1000.0 nM
[10] = target: Casein kinase I isoform delta (Homo sapiens) (UniProt P48730); conditions: Compound concentration 1000.0 nM
Chain of Casein kinase I isoform delta (Homo sapiens) (P48730 whole entry, looked up, canonical isoform): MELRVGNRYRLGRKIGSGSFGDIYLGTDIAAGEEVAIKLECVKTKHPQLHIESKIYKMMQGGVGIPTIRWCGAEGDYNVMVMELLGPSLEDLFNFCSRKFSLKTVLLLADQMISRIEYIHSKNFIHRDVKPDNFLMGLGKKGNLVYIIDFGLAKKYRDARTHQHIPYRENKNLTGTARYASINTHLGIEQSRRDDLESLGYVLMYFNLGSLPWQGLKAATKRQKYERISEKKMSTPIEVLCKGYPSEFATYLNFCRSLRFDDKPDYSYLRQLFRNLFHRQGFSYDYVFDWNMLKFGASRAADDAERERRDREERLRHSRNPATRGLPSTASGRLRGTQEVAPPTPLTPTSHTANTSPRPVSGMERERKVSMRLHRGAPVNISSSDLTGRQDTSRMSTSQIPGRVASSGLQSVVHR

[11] = target: Cyclin-dependent kinase 14 (Homo sapiens) (UniProt O94921); conditions: Compound concentration 1000.0 nM
[12] = target: Mitogen-activated protein kinase kinase kinase 11 (Homo sapiens) (UniProt Q16584); conditions: Compound concentration 1000.0 nM
[13] = target: SNF-related serine/threonine-protein kinase (Homo sapiens) (UniProt Q9NRH2); conditions: Compound concentration 1000.0 nM
[14] = target: BMP-2-inducible protein kinase (Homo sapiens) (UniProt Q9NSY1); conditions: Compound concentration 1000.0 nM
[15] = target: Mitogen-activated protein kinase kinase kinase 6 (Homo sapiens) (UniProt O95382); conditions: Compound concentration 1000.0 nM
[16] = target: Dual specificity mitogen-activated protein kinase kinase 5 (Homo sapiens) (UniProt Q13163); conditions: Compound concentration 1000.0 nM
[17] = target: MAP kinase-interacting serine/threonine-protein kinase 1 (Homo sapiens) (UniProt Q9BUB5); conditions: Compound concentration 1000.0 nM
[18] = tested on: Leucine-rich repeat serine/threonine-protein kinase 2 (Homo sapiens), Q5S007 [G2019S]; conditions: Compound concentration 1000.0 nM
[19] = target: Atypical kinase COQ8B, mitochondrial (Homo sapiens) (UniProt Q96D53); conditions: Compound concentration 1000.0 nM
[20] = target: MAP/microtubule affinity-regulating kinase 3 (Homo sapiens) (UniProt P27448); conditions: Compound concentration 1000.0 nM
[21] = target: Alpha-1A adrenergic receptor (Homo sapiens) (UniProt P35348); conditions: Compound concentration 10.0 uM
[22] = target: Ephrin type-A receptor 6 (Homo sapiens) (UniProt Q9UF33); conditions: Compound concentration 1000.0 nM
Chain of Ephrin type-A receptor 6 (Homo sapiens) (Q9UF33 whole entry): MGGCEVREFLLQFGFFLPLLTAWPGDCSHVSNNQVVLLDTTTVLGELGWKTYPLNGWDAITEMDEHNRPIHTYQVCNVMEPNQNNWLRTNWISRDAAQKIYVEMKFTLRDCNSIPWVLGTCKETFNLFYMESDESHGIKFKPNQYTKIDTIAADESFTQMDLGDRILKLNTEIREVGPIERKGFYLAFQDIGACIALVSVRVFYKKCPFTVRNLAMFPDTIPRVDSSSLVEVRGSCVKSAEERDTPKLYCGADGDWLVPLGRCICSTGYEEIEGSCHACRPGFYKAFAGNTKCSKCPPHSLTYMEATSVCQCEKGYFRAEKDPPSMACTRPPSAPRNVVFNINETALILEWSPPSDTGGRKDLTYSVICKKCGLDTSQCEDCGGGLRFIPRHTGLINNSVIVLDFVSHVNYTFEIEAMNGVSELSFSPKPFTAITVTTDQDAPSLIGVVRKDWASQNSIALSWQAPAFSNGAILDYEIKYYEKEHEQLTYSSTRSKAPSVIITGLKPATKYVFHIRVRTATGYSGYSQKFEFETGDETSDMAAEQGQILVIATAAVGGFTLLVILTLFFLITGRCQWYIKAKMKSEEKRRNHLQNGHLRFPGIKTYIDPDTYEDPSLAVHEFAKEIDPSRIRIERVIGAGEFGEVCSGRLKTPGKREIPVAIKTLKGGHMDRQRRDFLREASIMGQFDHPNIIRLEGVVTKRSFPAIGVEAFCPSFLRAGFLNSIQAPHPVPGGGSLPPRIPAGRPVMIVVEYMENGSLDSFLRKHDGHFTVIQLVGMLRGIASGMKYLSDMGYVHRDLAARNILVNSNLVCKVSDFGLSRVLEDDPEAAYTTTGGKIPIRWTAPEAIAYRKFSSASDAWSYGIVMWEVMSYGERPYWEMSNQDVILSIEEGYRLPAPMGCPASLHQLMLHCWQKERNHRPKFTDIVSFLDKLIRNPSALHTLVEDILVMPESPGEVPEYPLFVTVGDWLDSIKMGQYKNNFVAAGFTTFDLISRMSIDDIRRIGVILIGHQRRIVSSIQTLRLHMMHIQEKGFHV

[23] = target: NUAK family SNF1-like kinase 2 (Homo sapiens) (UniProt Q9H093); conditions: Compound concentration 1000.0 nM
[24] = target: Receptor-interacting serine/threonine-protein kinase 2 (Homo sapiens) (UniProt O43353); conditions: Compound concentration 1000.0 nM
[25] = target: Mitogen-activated protein kinase 14 (Homo sapiens) (UniProt Q16539); conditions: Compound concentration 1000.0 nM
Chain of Mitogen-activated protein kinase 14 (Homo sapiens) (Q16539 whole entry): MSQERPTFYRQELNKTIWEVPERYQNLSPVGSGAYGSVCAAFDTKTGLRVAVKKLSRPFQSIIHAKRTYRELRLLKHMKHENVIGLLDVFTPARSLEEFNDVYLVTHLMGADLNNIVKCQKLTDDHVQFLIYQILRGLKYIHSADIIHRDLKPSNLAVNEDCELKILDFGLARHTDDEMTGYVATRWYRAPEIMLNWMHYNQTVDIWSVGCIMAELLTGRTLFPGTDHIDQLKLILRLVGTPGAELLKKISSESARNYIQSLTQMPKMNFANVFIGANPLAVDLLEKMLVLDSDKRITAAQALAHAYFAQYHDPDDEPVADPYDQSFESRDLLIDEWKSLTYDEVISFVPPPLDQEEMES

[26] = target: Serine/threonine-protein kinase PLK1 (Homo sapiens) (UniProt P53350); conditions: Compound concentration 1000.0 nM
Chain of Serine/threonine-protein kinase PLK1 (Homo sapiens) (P53350 whole entry, canonical isoform): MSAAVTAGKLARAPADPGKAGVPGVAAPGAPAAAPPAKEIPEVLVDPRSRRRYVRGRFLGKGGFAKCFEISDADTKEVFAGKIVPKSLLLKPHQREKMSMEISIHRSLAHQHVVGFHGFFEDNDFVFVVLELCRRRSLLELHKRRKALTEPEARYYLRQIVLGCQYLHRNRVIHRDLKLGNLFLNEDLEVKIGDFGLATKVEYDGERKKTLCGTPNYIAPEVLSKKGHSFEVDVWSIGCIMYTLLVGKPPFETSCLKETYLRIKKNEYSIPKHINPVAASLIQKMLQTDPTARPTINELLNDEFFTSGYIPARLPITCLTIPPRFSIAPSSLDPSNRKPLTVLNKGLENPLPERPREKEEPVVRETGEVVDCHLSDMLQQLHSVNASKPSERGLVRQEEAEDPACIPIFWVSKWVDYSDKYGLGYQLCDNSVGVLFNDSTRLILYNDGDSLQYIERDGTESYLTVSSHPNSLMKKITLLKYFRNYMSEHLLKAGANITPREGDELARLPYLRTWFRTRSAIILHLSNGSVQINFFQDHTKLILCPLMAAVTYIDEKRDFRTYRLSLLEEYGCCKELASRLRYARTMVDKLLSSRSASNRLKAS

[27] = target: Casein kinase I isoform alpha-like (Homo sapiens) (UniProt Q8N752); conditions: Compound concentration 1000.0 nM
[28] = target: Phosphatidylinositol 3-kinase catalytic subunit type 3 (Homo sapiens) (UniProt Q8NEB9); conditions: Compound concentration 1000.0 nM
[29] = target: Muscarinic acetylcholine receptor M3 (Homo sapiens) (UniProt P20309); conditions: Compound concentration 10.0 uM
[30] = target: Insulin receptor (Homo sapiens) (UniProt P06213); conditions: Compound concentration 1000.0 nM
[31] = tested on: Mast/stem cell growth factor receptor Kit (Homo sapiens), P10721 [L576P]; conditions: Compound concentration 1000.0 nM
[32] = target: Serine/threonine-protein kinase 33 (Homo sapiens) (UniProt Q9BYT3); conditions: Compound concentration 1000.0 nM
[33] = target: Muscle, skeletal receptor tyrosine-protein kinase (Homo sapiens) (UniProt O15146); conditions: Compound concentration 1000.0 nM
Chain of Muscle, skeletal receptor tyrosine-protein kinase (Homo sapiens) (O15146 whole entry): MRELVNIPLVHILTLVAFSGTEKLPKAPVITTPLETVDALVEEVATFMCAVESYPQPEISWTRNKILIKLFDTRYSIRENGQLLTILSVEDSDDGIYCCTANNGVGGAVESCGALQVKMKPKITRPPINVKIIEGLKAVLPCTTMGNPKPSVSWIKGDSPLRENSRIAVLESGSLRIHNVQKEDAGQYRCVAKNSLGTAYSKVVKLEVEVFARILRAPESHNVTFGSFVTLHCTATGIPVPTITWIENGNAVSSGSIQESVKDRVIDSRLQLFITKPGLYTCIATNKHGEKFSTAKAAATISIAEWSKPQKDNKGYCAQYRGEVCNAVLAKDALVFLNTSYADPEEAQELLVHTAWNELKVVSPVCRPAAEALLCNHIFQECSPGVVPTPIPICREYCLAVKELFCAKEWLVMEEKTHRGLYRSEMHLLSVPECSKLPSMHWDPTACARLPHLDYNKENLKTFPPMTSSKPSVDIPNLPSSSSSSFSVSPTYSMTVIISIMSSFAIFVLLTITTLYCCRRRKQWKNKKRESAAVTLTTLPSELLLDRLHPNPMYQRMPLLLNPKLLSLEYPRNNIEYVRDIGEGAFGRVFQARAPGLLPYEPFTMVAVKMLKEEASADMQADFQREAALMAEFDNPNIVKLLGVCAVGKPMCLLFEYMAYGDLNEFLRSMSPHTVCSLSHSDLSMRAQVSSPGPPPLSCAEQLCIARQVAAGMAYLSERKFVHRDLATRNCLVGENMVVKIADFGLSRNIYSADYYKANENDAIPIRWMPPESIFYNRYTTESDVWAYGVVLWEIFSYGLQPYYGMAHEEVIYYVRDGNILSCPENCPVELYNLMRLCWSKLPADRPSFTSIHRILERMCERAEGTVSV

[34] = target: Vascular endothelial growth factor receptor 3 (Homo sapiens) (UniProt P35916); conditions: Compound concentration 1000.0 nM
Chain of Vascular endothelial growth factor receptor 3 (Homo sapiens) (P35916 whole entry): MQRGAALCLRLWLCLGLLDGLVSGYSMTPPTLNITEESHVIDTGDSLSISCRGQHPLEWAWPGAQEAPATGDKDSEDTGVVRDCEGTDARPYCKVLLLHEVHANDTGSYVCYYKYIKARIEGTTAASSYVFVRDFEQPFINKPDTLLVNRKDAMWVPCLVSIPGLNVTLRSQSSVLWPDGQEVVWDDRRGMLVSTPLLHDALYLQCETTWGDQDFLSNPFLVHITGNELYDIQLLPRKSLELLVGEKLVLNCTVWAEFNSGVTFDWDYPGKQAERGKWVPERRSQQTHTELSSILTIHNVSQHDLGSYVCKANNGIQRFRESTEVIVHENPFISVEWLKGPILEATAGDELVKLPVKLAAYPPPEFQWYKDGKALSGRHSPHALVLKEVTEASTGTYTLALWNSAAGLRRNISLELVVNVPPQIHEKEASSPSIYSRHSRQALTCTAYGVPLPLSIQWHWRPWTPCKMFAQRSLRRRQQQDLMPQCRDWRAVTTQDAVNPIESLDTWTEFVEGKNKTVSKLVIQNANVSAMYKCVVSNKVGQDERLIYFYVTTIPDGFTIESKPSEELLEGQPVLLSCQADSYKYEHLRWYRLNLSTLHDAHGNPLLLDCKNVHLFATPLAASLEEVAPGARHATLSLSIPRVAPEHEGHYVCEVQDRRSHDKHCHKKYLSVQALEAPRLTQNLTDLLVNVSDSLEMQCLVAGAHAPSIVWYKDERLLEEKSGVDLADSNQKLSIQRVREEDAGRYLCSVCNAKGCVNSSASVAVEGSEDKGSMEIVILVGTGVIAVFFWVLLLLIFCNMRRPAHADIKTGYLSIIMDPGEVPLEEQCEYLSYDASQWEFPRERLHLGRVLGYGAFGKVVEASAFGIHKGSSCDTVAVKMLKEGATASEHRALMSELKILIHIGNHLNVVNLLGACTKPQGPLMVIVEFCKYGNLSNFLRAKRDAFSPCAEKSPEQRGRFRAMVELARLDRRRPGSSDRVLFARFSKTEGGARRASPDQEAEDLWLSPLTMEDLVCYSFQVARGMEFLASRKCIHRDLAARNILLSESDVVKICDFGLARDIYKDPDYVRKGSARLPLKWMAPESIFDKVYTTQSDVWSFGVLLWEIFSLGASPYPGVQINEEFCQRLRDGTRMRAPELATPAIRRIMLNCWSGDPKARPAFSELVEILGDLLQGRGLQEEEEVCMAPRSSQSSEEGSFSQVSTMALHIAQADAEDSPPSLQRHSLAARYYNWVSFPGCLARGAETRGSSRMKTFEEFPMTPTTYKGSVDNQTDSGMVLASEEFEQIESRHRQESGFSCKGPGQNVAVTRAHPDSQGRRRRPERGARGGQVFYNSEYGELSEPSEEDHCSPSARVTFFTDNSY

[35] = tested on: Fibroblast growth factor receptor 3 (Homo sapiens), P22607 [G697C]; conditions: Compound concentration 1000.0 nM
[36] = tested on: Epidermal growth factor receptor (Homo sapiens), P00533 [T790M]; conditions: Compound concentration 1000.0 nM
[37] = tested on: Receptor-type tyrosine-protein kinase FLT3 (Homo sapiens), P36888 [K663Q]; conditions: Compound concentration 1000.0 nM
[38] = target: Serine/threonine-protein kinase ULK3 (Homo sapiens) (UniProt Q6PHR2); conditions: Compound concentration 1000.0 nM
[39] = target: MAP kinase-activated protein kinase 2 (Homo sapiens) (UniProt P49137); conditions: Compound concentration 1000.0 nM
Chain of MAP kinase-activated protein kinase 2 (Homo sapiens) (P49137 whole entry, looked up): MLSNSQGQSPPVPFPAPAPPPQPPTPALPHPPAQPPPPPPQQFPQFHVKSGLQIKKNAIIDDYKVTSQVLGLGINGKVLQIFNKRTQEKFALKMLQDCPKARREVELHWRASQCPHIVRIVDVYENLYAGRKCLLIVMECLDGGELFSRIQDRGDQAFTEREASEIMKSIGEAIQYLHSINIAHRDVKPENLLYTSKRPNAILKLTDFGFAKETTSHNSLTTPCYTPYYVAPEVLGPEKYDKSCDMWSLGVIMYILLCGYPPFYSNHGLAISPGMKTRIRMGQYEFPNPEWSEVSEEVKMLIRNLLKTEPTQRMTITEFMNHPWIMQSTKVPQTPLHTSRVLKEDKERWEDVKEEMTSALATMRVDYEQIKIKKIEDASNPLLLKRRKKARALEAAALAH

[40] = target: RAF proto-oncogene serine/threonine-protein kinase (Homo sapiens) (UniProt P04049); conditions: Compound concentration 1000.0 nM
[41] = tested on: Hepatocyte growth factor receptor (Homo sapiens), P08581 [Y1235D]; conditions: Compound concentration 1000.0 nM
[42] = target: cAMP-dependent protein kinase catalytic subunit PRKX (Homo sapiens) (UniProt P51817); conditions: Compound concentration 1000.0 nM
[43] = target: Activin receptor type-2A (Homo sapiens) (UniProt P27037); conditions: Compound concentration 1000.0 nM
[44] = target: Megakaryocyte-associated tyrosine-protein kinase (Homo sapiens) (UniProt P42679); conditions: Compound concentration 1000.0 nM
[45] = target: Cyclin-dependent kinase 9 (Homo sapiens) (UniProt P50750); conditions: Compound concentration 1000.0 nM

Cc1c(NC(=O)c2cc(C(N)=O)nc3cc(F)ccc23)c(C(F)(F)F)nn1Cc1ccc(C(C)(C)C)cc1 [BAY-588]
inactive: residual activity [1] 100% | residual activity [2] 100% | residual activity [3] 100% | residual activity [4] 91% | residual activity [5] 100% | residual activity [6] 100% | residual activity [7] 78% | residual activity [8] 100% | residual activity [9] 100% | residual activity [10] 81% | residual activity [11] 94% | residual activity [12] 100% | residual activity [13] 93% | residual activity [14] 100% | residual activity [15] 100% | residual activity [16] 78% | residual activity [17] 100% | residual activity [18] 100% | residual activity [19] 70% | residual activity [20] 100% | inhibition [21] 5.25% | residual activity [22] 100% | residual activity [23] 100% | residual activity [24] 93% | residual activity [25] 100% | residual activity [26] 99% | residual activity [27] 93% | residual activity [28] 100% | inhibition [29] 1.86% | residual activity [30] 100% | residual activity [31] 95% | residual activity [32] 96% | residual activity [33] 97% | residual activity [34] 91% | residual activity [35] 97% | residual activity [36] 100% | residual activity [37] 100% | residual activity [38] 97% | residual activity [39] 100% | residual activity [40] 88% | residual activity [41] 84% | residual activity [42] 94% | residual activity [43] 100% | residual activity [44] 66% | residual activity [45] 100%

Cc1c(NC(=O)c2cc(C(N)=O)nc3cc(F)ccc23)c(C(F)(F)F)nn1Cc1ccc(C#N)cc1 [BAY-876]
inactive: residual activity [1] 76% | residual activity [2] 100% | residual activity [3] 74% | residual activity [4] 80% | residual activity [5] 84% | residual activity [6] 81% | residual activity [7] 94% | residual activity [8] 80% | residual activity [9] 99% | residual activity [10] 76% | residual activity [11] 100% | residual activity [12] 100% | residual activity [13] 90% | residual activity [14] 96% | residual activity [15] 75% | residual activity [16] 88% | residual activity [17] 68% | residual activity [18] 100% | residual activity [19] 80% | residual activity [20] 100% | inhibition [21] -5.75% | residual activity [22] 87% | residual activity [23] 83% | residual activity [24] 100% | residual activity [25] 91% | residual activity [26] 88% | residual activity [27] 100% | residual activity [28] 99% | inhibition [29] -6.5% | residual activity [30] 100% | residual activity [31] 92% | residual activity [32] 80% | residual activity [33] 95% | residual activity [34] 100% | residual activity [35] 89% | residual activity [36] 100% | residual activity [37] 93% | residual activity [38] 74% | residual activity [39] 97% | residual activity [40] 86% | residual activity [41] 100% | residual activity [42] 92% | residual activity [43] 97% | residual activity [44] 66% | residual activity [45] 86%
